Two compounds from PMC5519068 (PLoS ONE, 2017) can be followed below.

Experiment [1] has as its system T1, Fes in MV4-11 and MOLM-14 cells.
T1 construct: endogenous in cells; host or cells: MV4-11 and MOLM-14
Kind of experiment: Immunoprecipitation/immunoblot of Fes activation loop phosphorylation (pY713) in AML cells. Type of experiment: cell-based, human. Particulars: compound at in vitro IC90 for Fes, 16 h (tandutinib: IC90 for Flt3-ITD, 6 h). As to the method: AML cells (2.5 x 10^6 in 5 mL) were cultured in the presence of kinase inhibitors or DMSO alone for 6 to 16 hours prior to lysis by sonication in RIPA buffer (50 mM Tris-HCl, pH 7.4, 150 mM NaCl, 1 mM EDTA, 1% Triton X-100, 0.1% SDS, 1% sodium deoxycholate) supplemented with 1 mM sodium orthovanadate, 1 mM sodium fluoride, 5 units/ml Benzonase (Novagen), and SigmaFAST EDTA-free protease inhibitor cocktail (Sigma). Flt3 and Fes were immunoprecipitated from 1 mg of cell lysate with 2 μg of antibody and 25 μL of protein G-Sepharose beads (Life Technologies) overnight at 4°C. Immunoprecipitates were washed three times by resuspension in 1.0 ml of RIPA buffer. Immunoprecipitated proteins were separated by SDS-PAGE, transferred to PVDF membranes and probed with the indicated antibodies followed by alkaline phosphatase-linked secondary antibodies. CDP-Star Western Blot Chemiluminescence Reagent (Perkin-Elmer) was used for detection.
Fes and Flt3 kinase proteins were then immunoprecipitated from cell lysates, followed by immunoblotting with antibodies to phosphotyrosine (pTyr), the Fes activation loop phosphotyrosine (pY713), as well as the Flt3 and Fes proteins.

The subject of a further experiment is THP-1 cells. The experiment in a line: Growth inhibition, CellTiter-Blue viability, 72 h. Type of experiment: cell-based. Particulars: Homo sapiens, THP-1 (wild-type Flt3), read-out: Growth Suppression in AML Cell Lines (IC50, nM) THP-1. As to the method:
(§1) Cells were seeded at a density of 100,000 cells per 1.0 ml in 48-well culture plates. Compounds were added to various concentrations while holding the DMSO concentration constant at 0.1%. Cell viability was assessed 72 hours later using the CellTiter-Blue Cell Viability assay (Promega) according to the manufacturer’s protocol and a SpectraMax Multi-Mode Microplate Reader (Molecular Devices). IC50 values were determined by non-linear regression analysis of concentration-response curves using the GraphPad PRISM software package (version 6.0). Apoptosis was determined using the same cell culture conditions and the Apo-ONE Homogeneous Caspase-3/7 Assay (Promega) and the manufacturer’s protocol.
(§2) Fig 2 Fes tyrosine kinase inhibitors induce growth arrest in Flt3-ITD^+ AML cell lines. A) The Flt3-ITD^+ cell lines MV4-11, MOLM-13, and MOLM-14, along with THP-1 (wild-type FLT3) were incubated with each of the kinase inhibitors shown over a range of concentrations, and cell viability was measured 72 h later using the CellTiter-Blue Assay (see Materials and methods). Raw fluorescence data were corrected for background and then normalized to cultures grown in the presence of the DMSO carrier solvent. Each assay condition was performed in triplicate, and results are presented as the mean of the normalized values ± the SD. The resulting dose-response curves were fitted by non-linear regression analysis, and the resulting IC50 values are shown in Table 1.

The test system of another experiment is MOLM-14 cells. The experiment in a line: Growth inhibition, CellTiter-Blue viability, 72 h. Type of experiment: cell-based. Particulars: Homo sapiens, MOLM-14 (Flt3-ITD+), read-out: Growth Suppression in AML Cell Lines (IC50, nM) MOLM-14. As to the method: as §1, §2
Background: Resazurin is reduced to fluorescent resorufin, in cell work by metabolically active cells.

The subject of another experiment is MV4-11 cells. The experiment in a line: Growth inhibition, CellTiter-Blue viability, 72 h. It is filed as cell-based. Particulars: Homo sapiens, MV4-11 (Flt3-ITD+), read-out: Growth Suppression in AML Cell Lines (IC50, nM) MV4-11. As to the method:
as §1, §2

For a further experiment, the system named is MOLM-13 cells. The experiment in a line: Growth inhibition, CellTiter-Blue viability, 72 h. Type of experiment: cell-based. Particulars: Homo sapiens, MOLM-13 (Flt3-ITD+), read-out: Growth Suppression in AML Cell Lines (IC50, nM) MOLM-13. As to the method: as §1, §2
Experiment [2] deals with Flt3-ITD+ AML cell lines (MV4-11, MOLM-13, MOLM-14). Kind of experiment: Growth inhibition across Flt3-ITD+ AML cell lines. Type of experiment: cell-based. Particulars: Homo sapiens, 72 h. As for the experimental part:
as §1
Raw fluorescence data were corrected for background and then normalized to cultures grown in the presence of the DMSO carrier solvent. Each assay condition was performed in triplicate, and results are presented as the mean of the normalized values ± the SD.

The test system is the same in experiment [3]. The experiment in a line: Apoptosis, Apo-ONE Caspase 3/7 assay. Type of experiment: cell-based, human. Particulars: 1.0 μM, 72 h. As for the experimental part: as §1
Cell viability was measured in parallel using the CellTiter-Blue assay, and the resulting data are presented as the ratio of Caspase activity to cell viability as per the manufacturer’s protocol. All assays were performed in triplicate, and data are presented as the mean ratios ± SD. Asterisks indicate statistical significance between each treatment group vs. the corresponding DMSO control group with p < 0.05 (Student’s t-test).

A further experiment has as its target T2, Flt3-WT kinase domain (Homo sapiens, UniProt P36888).
T2 construct: Recombinant Flt3-WT, Flt3-ITD, and Flt3-D835Y kinase domain proteins were purchased from Life Technologies; purchased Life Technologies
The experiment in a line: In vitro kinase assay (Z'-LYTE). Type of experiment: biochemical. Particulars: ATP at Km. As for the experimental part: (§3) Recombinant protein kinase assays were performed using the FRET-based Z’-LYTE Kinase Assay according to the manufacturer’s instructions (Thermo Fisher Scientific). […] The Tyr-2 peptide was used as substrate for all recombinant kinases. Kinases were preincubated with inhibitors for 30 minutes, followed by addition of ATP and peptide substrate for 1 hour. Reactions were quenched by addition of development reagent, followed by incubation for an additional hour prior to fluorescence measurements on a SpectraMax M5 microplate reader. IC50 values were calculated by non-linear regression analysis of the resulting concentration-response curves using GraphPad PRISM.

In the next experiment the target is Flt3-ITD kinase domain (Homo sapiens, UniProt P36888). The experiment in a line: In vitro kinase assay (Z'-LYTE). It is filed as biochemical. Particulars: ATP at Km. As for the experimental part: as §3
The next experiment deals with T3, Flt3-D835Y kinase domain (Homo sapiens, UniProt P36888, D835Y).
T3 construct: Recombinant Flt3-WT, Flt3-ITD, and Flt3-D835Y kinase domain proteins were purchased from Life Technologies; purchased Life Technologies
T3 sequence (P36888 610-943 D835Y limits assumed): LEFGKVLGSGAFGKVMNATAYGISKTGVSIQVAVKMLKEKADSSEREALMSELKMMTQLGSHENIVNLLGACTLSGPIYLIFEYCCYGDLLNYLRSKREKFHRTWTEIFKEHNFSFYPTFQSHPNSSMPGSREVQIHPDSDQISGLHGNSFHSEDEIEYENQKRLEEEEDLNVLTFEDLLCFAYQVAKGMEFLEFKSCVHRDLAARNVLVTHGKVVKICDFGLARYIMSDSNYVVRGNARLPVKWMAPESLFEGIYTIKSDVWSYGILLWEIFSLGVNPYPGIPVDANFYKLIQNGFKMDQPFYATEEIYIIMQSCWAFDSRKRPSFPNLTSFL
The experiment in a line: In vitro kinase assay (Z'-LYTE). It is filed as biochemical. Particulars: for IC50: ATP at Km. As to the method:
as §3

Read-outs that look alike come from different tables or passages of the source.

The IC50 is the point on the concentration scale where inhibition reaches its midpoint. As to `CCN1CCN(Cc2ccc(NC(=O)c3ccc(C)c(Oc4ccnc5[nH]ccc45)c3)cc2C(F)(F)F)CC1` [HG7-92-01], in experiment [1], the “Inhibition of Fes activation loop phosphorylation in MV4-11 and MOLM-14 cells” value is “inhibited Flt3-ITD and Fes in both cell lines”. For the same compound, the IC50 in the experiment with THP-1 cells is > 3000 nM; with MOLM-14 cells it was 34 nM; in the experiment with MV4-11 cells, 19 nM; with MOLM-13 cells, 93 nM; in experiment [2] (MV4-11, MOLM-13, MOLM-14, read-out: IC50 values for growth inhibition, range over the Flt3-ITD+ AML cell lines), 19 to 166 nM; against Flt3-WT kinase domain it was 536 nM. For the same compound, the half-maximal inhibitory concentration (IC50) against Flt3-ITD kinase domain was determined as 149 nM; against Flt3-D835Y kinase domain, 3650 nM. The “Apoptosis (Caspase 3/7 activity) in Flt3-ITD+ AML cell lines” value in [3] is listed as “equal to or greater than that observed with tandutinib”.

As for `COc1cc(N2CCC(O)CC2)ccc1Nc1nc(Nc2ccccc2S(=O)(=O)C(C)C)c2cn[nH]c2n1` [WZ4-49-1], in experiment [1], the “Inhibition of Fes activation loop phosphorylation in MV4-11 and MOLM-14 cells” value was “only inhibited Fes”. In addition, the IC50 was > 3000 nM in the experiment on THP-1 cells; 994 nM with MOLM-14 cells; 965 nM with MV4-11 cells; 884 nM in the experiment on MOLM-13 cells; ~1000 nM in [2] (read-out: IC50 values for growth inhibition in all three Flt3-ITD+ AML cell lines); 3140 nM on Flt3-WT kinase domain. For the same compound, the figures for the 50% inhibitory concentration (IC50) at Flt3-ITD kinase domain and against Flt3-D835Y kinase domain were 1390 nM and 642 nM, respectively. For the same compound, in experiment [3], the “Apoptosis (Caspase 3/7 activity) in Flt3-ITD+ AML cell lines” value was “less pronounced”. At Flt3-D835Y kinase domain (in vitro kinase assays), the “Sensitivity of Flt3-D835Y compared to wild-type Flt3 in vitro” value is on record as “about 5 fold”.
